Test system: B. Pseudomonas aeruginosa
Test: Induced peritoneal sepsis, survival
Type: in vivo
Conditions: for Survival (animals alive): bacteria + Gentamycin 1.0 mg/ml i.p.
Procedure: Mice (C3H) were induced with B. Pseudomonas aeruginosa to have peritoneal sepsis, with resultant infection injury to the lung. Fox-Dewhurst, R., et al., Am. J Respir. Crit. Care Med., 155:2030-2040 (1997). Groups of animals (n=4 per group) were treated with doses of bacteria (108-1010 cfu/ml) in the peritoneum. Injection bacteria was prepared in saline at 10×10^7 cfu/ml. 0.3 ml of bacterial solution was injected into the peritoneal cavity. After three minutes, 0.3 ml of saline or 0.5 ml of electrolyzed saline solution was injected intraperitoneally. A group of animals was treated with Gentamycin as a positive control to compare the effectiveness of 25%, 50%, and 100% electrolyzed saline solutions. This group of animals was treated at the time of bacterial inoculation with Gentamycin at a concentration of 1.0 mg/ml intraperitoneally.
Six study groups of mice were studied: saline control, Gentamycin positive control, bacteria plus 25% electrolyzed saline solution, bacteria plus 50% electrolyzed saline solution, bacteria plus 100% electrolyzed saline solution, and bacteria plus saline.

## Gentamycin
24 hrs, n=4
  Survival (animals alive): 4
48 hours, Gentamicin 1.0 mg/ml i.p.
  clinical appearance of animals: still normal with no sign of sickness
48 hrs, n=4
  Survival (animals alive): 4
72 hours, Gentamicin 1.0 mg/ml i.p.
  survival rate: 50%
72 hours, Gentamicin 1.0 mg/ml i.p., n=4
  animals died: 2
72 hrs, n=4
  Survival (animals alive): 2

Reference: patent US20060039996A1, “Method for treating sepsis” (priority 2004, published 2006)
